Consider 19 molecules from patent US20210214375A1 (LUNDBECK LA JOLLA RESEARCH CENTER, INC., priority 2017, published 2021).

Usually IC50 stands for the midpoint of a concentration-inhibition curve. A low value points to greater potency.

One assay concerns the target T1, MGLL (Mus musculus, UniProt O35678).
T1 construct: Brain; from tissue; host or cells: mouse brain proteome
T1 sequence (O35678 1-303): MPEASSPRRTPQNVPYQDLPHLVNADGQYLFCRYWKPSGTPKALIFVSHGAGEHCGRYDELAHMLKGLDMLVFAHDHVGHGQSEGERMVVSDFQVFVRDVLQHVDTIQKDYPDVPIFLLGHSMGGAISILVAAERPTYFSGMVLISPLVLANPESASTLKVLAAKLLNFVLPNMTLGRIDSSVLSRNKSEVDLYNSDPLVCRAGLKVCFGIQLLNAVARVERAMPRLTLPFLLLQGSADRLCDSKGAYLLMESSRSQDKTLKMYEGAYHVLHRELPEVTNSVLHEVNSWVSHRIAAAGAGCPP
Description: In vitro competitive activity-based protein profiling, mouse brain proteome. The class given is biochemical. Here is the method:
[Worded in the source for another species; this species is reported under the same test.] (§1) Proteomes (human prefrontal cortex or cell membrane fractions) (50 μL, 1.0 mg/mL total protein concentration) were preincubated with varying concentrations of inhibitors at 37° C. After 30 min, FP—Rh or HT-01 (1.0 μL, 50 μM in DMSO) was added and the mixture was incubated for another 30 min at room temperature. Reactions were quenched with SDS loading buffer (15 μL-4×) and run on SDS-PAGE.

A further assay deals with T2, ABHD6 (Mus musculus, UniProt Q8R2Y0).
T2 construct: Brain; from tissue; host or cells: mouse brain proteome
T2 sequence (Q8R2Y0 1-336): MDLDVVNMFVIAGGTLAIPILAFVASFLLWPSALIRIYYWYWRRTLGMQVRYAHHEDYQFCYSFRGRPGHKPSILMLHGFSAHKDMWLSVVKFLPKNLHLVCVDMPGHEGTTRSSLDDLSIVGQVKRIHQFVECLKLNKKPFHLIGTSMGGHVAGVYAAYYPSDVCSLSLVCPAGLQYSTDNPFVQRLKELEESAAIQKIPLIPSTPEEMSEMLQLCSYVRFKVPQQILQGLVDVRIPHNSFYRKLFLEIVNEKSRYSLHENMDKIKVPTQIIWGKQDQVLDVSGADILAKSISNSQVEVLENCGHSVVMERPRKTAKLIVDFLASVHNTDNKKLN
Description: In vitro competitive activity-based protein profiling, mouse brain proteome, ABHD6. The class given is biochemical. The conditions noted are these: mouse. Here is the method:
[Worded in the source for another target; this target is reported under the same test.] as §1

In a further assay the target is T3, MAGL (Mus musculus, UniProt O35678).
T3 construct: from tissue; host or cells: brain of wild-type C57Bl/6J mice
T3 sequence (O35678 1-303): T1 sequence (O35678 1-303)
The assay is described as follows: Mouse brain proteomes from inhibitor treated mice (oral gavage, brain proteomes analyzed 4 h after administration). The class given is in vivo, mouse (C57Bl/6J). To be noted: brain proteome 4 h after administration, read-out: % Inh 5 mg/kg MGLL (Mouse). Summed up: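 Wild-type C57Bl/6J mice dosed orally in polyethylene glycol vehicle; brains removed 4 h post-dose and brain proteomes prepared and analysed for MAGL and serine hydrolase activity by previously established methods.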

With `CS(=O)(=O)N1CCC2(CCN(c3cccc(Cl)c3CN3CC4(CCN(C(=O)OC(C(F)(F)F)C(F)(F)F)CC4)C3)CC2)C1` [Example 61, 1,1,1,3,3,3-Hexafluoropropan-2-yl 2-(2-chloro-6-(2-(methylsulfonyl)-2,8-diazaspiro[4.5]decan-8-yl)benzyl)-2,7-diazaspiro[3.5]nonane-7-carboxylate], the IC50 was below 100 nM on MGLL and 100 to 1000 nM at ABHD6. At MAGL, the inhibition at 5 mg/kg fell in the range of 25 to 75%.
The matching figures for `CS(=O)(=O)N1CCC2(CCN(c3cccc(C(F)(F)F)c3CN3CC4(CCN(C(=O)OC(C(F)(F)F)C(F)(F)F)CC4)C3)CC2)C1` [Example 62, 1,1,1,3,3,3-Hexafluoropropan-2-yl 2-(2-(2-(methylsulfonyl)-2,8-diazaspiro[4.5]decan-8-yl)-6-(trifluoromethyl)benzyl)-2,7-diazaspiro[3.5]nonane-7-carboxylate]: below 100 nM, above 1000 nM and 25 to 75%.
As for `CN(Cc1ccc(C(F)(F)F)cc1N1CCOCC1)C1(C)CCN(C(=O)OC(C(F)(F)F)C(F)(F)F)CC1` [Example 63, 1,1,1,3,3,3-Hexafluoropropan-2-yl 4-methyl-4-(methyl(2-morpholino-4-(trifluoromethyl)benzyl)amino) piperidine-1-carboxylate], the IC50 at MGLL is below 100 nM; at ABHD6, above 1000 nM. In addition, the inhibition at 5 mg/kg at MAGL was at least 75%.
With `O=C(OC(C(F)(F)F)C(F)(F)F)N1CCC2(CC1)CN(Cc1ccc(C(F)(F)F)cc1)C2` [Example 69, 1,1,1,3,3,3-Hexafluoropropan-2-yl 2-(4-(trifluoromethyl)benzyl)-2,7-diazaspiro[3.5]nonane-7-carboxylate], the IC50 on MGLL and on ABHD6 was below 100 nM each time. The inhibition at 5 mg/kg at MAGL is at least 75%.
In the case of `CN(Cc1ccc(C(F)(F)F)cc1N1CCCC1)C1(C)CCN(C(=O)OC(C(F)(F)F)C(F)(F)F)CC1` [Example 72, 1,1,1,3,3,3-Hexafluoropropan-2-yl 4-methyl-4-(methyl(2-(pyrrolidin-1-yl)-4-(trifluoromethyl)benzyl)amino) piperidine-1-carboxylate], the values for the IC50 at MGLL and on ABHD6 were below 100 nM and above 1000 nM, respectively. In addition, on MAGL, the inhibition at 5 mg/kg is at least 75%.
In the case of `O=C(OC(C(F)(F)F)C(F)(F)F)N1CCC2(CC1)CN(Cc1ccc(C(F)(F)F)cc1N1CCCC1)C2` [Example 151, 1,1,1,3,3,3-Hexafluoropropan-2-yl 2-(2-(pyrrolidin-1-yl)-4-(trifluoromethyl)benzyl)-2,7-diazaspiro[3.5]nonane-7-carboxylate], the IC50 was below 100 nM at MGLL and 100 to 1000 nM at ABHD6. In addition, the inhibition at 5 mg/kg at MAGL was at least 75%.
Turning to `CS(=O)(=O)N1CCC2(CCN(c3ccccc3CN3CCN(C(=O)OC(C(F)(F)F)C(F)(F)F)CC3)C2)C1` (stereo not drawn) [Example 165, 1,1,1,3,3,3-Hexafluoropropan-2-yl 4-(2-(7-(methylsulfonyl)-2,7-diazaspiro[4.4]nonan-2-yl)benzyl)piperazine-1-carboxylate], the IC50 on MGLL was below 100 nM; on ABHD6, above 1000 nM. For the same molecule, the inhibition at 5 mg/kg at MAGL is at least 75%.
As to `CC(=O)N1CCC2(CCN(c3ccccc3CN3CCN(C(=O)OC(C(F)(F)F)C(F)(F)F)CC3)C2)C1` (stereo not drawn) [Example 166, 1,1,1,3,3,3-Hexafluoropropan-2-yl 4-(2-(7-acetyl-2,7-diazaspiro[4.4]nonan-2-yl)benzyl)piperazine-1-carboxylate], the IC50 is below 100 nM on MGLL and above 1000 nM at ABHD6. Also, the inhibition at 5 mg/kg on MAGL is at most 25%.
The matching figures for `CS(=O)(=O)N1CC2(CCN(c3ccccc3CN3CCN(C(=O)OC(C(F)(F)F)C(F)(F)F)CC3)C2)C1` [Example 167, 1,1,1,3,3,3-Hexafluoropropan-2-yl 4-(2-(2-(methylsulfonyl)-2,6-diazaspiro[3.4]octan-6-yl)benzyl)piperazine-1-carboxylate]: below 100 nM, above 1000 nM and at least 75%.
On to `O=C(OC(C(F)(F)F)C(F)(F)F)N1CCC2(CCN(Cc3cccc(Cl)c3N3CCCC3)CC2)C1` [Example 171, 1,1,1,3,3,3-Hexafluoropropan-2-yl 8-(3-chloro-2-(pyrrolidin-1-yl)benzyl)-2,8-diazaspiro[4.5]decane-2-carboxylate], for which the IC50 is below 100 nM at MGLL and above 1000 nM at ABHD6. Also, the inhibition at 5 mg/kg on MAGL is at least 75%.
The matching figures for `CS(=O)(=O)N1CC2(CCN(c3cc(Cl)ccc3CN3CCN(C(=O)OC(C(F)(F)F)C(F)(F)F)CC3)C2)C1` [Example 175, 1,1,1,3,3,3-Hexafluoropropan-2-yl 4-(4-chloro-2-(2-(methylsulfonyl)-2,6-diazaspiro[3.4]octan-6-yl)benzyl)piperazine-1-carboxylate]: below 100 nM, above 1000 nM and at least 75%.
Consider `CC(=O)N1CC2(CCN(c3cc(Cl)ccc3CN3CCN(C(=O)OC(C(F)(F)F)C(F)(F)F)CC3)C2)C1` [Example 176, 1,1,1,3,3,3-Hexafluoropropan-2-yl 4-(2-(2-acetyl-2,6-diazaspiro[3.4]octan-6-yl)-4-chlorobenzyl) piperazine-1-carboxylate], for which the IC50 is below 100 nM on MGLL and above 1000 nM at ABHD6. The inhibition at 5 mg/kg at MAGL is at least 75%.
On to `CN1CCC2(CCN(c3cc(Cl)ccc3CN3CCN(C(=O)OC(C(F)(F)F)C(F)(F)F)CC3)CC2)C1` [Example 177, 1,1,1,3,3,3-Hexafluoropropan-2-yl 4-(4-chloro-2-(2-methyl-2,8-diazaspiro[4.5]decan-8-yl)benzyl)piperazine-1-carboxylate], for which the IC50 on MGLL was below 100 nM; at ABHD6, above 1000 nM. Further, the inhibition at 5 mg/kg at MAGL fell in the range of 25 to 75%.
As for `CC(=O)N1CCC2(CCN(c3cc(Cl)ccc3CN3CCN(C(=O)OC(C(F)(F)F)C(F)(F)F)CC3)CC2)C1` [Example 178, 1,1,1,3,3,3-Hexafluoropropan-2-yl 4-(2-(2-acetyl-2,8-diazaspiro[4.5]decan-8-yl)-4-chlorobenzyl) piperazie-1-carboxylate], the IC50 at MGLL was below 100 nM; on ABHD6, above 1000 nM. Further, the inhibition at 5 mg/kg on MAGL was at least 75%.
`CN1CC2(CCN(c3cc(C(F)(F)F)ccc3CN3CCN(C(=O)OC(C(F)(F)F)C(F)(F)F)CC3)C2)C1` [Example 179, 1,1,1,3,3,3-Hexafluoropropan-2-yl 4-(2-(2-methyl-2,6-diazaspiro[3.4]octan-6-yl)-4-(trifluoromethyl)benzyl)piperazine-1-carboxylate]: the half-maximal inhibitory concentration (IC50) at MGLL was below 100 nM; on ABHD6, above 1000 nM. Also, the inhibition at 5 mg/kg on MAGL is at least 75%.
Consider `O=C(OC(C(F)(F)F)C(F)(F)F)N1CCC2(CCN(Cc3ccc(Cl)cc3N3CCOCC3)CC2)C1` [Example 181, 1,1,1,3,3,3-Hexafluoropropan-2-yl 8-(4-chloro-2-molpholinobenzyl)-2,8-diazaspiro[4.5]decane-2-carboxylate], for which the IC50 at MGLL was below 100 nM; at ABHD6, above 1000 nM. In addition, the inhibition at 5 mg/kg on MAGL is at least 75%.
Regarding `CN1CCC2(CCN(c3cc(C(F)(F)F)ccc3CN3CCN(C(=O)OC(C(F)(F)F)C(F)(F)F)CC3)CC2)C1` [Example 182, 1,1,1,3,3,3-Hexafluoropropan-2-yl 4-(2-(2-methyl-2,8-diazaspiro[4.5]decan-8-yl)-4-(trifluoromethyl)benzyl)piperazine-1-carboxylate], the IC50 on MGLL is below 100 nM; at ABHD6 it was above 1000 nM. Besides, the inhibition at 5 mg/kg at MAGL is at most 25%.
For `CCN1CC2(CCN(c3cc(C(F)(F)F)ccc3CN3CCN(C(=O)OC(C(F)(F)F)C(F)(F)F)CC3)C2)C1` [Example 184, 1,1,1,3,3,3-Hexafluoropropan-2-yl 4-(2-(2-ethyl-2,6-diazaspiro[3.4]octan-6-yl)-4-(trifluoromethyl)benzyl)piperazine-1-carboxylate], the IC50 on MGLL is below 100 nM; at ABHD6, above 1000 nM. For the same molecule, the inhibition at 5 mg/kg at MAGL was at most 25%.
Consider `O=C(OC(C(F)(F)F)C(F)(F)F)N1CCC2(CCN(Cc3ccc(C(F)(F)F)cc3N3CCCCC3)CC2)C1` [Example 187, 1,1,1,3,3,3-Hexafluoropropan-2-yl 8-(2-(piperidin-1-yl)-4-(trifluoromethyl)benzyl)-2,8-diazaspiro[4.5]decane-2-carboxylate], for which the IC50 on MGLL is below 100 nM; at ABHD6 it was above 1000 nM. For the same molecule, the inhibition at 5 mg/kg at MAGL is at least 75%.
